We go through 18 molecules from US20090286713A9, “Collagen Receptor I-Domain Binding Modulators” (Biotie Therapies Corporation, priority 2005, published 2009).

The target of experiment [1] is T1, CHO cells expressing α2β1 integrin (Homo sapiens, UniProt P05556+P17301).
T1 sequence (P17301 1-1181): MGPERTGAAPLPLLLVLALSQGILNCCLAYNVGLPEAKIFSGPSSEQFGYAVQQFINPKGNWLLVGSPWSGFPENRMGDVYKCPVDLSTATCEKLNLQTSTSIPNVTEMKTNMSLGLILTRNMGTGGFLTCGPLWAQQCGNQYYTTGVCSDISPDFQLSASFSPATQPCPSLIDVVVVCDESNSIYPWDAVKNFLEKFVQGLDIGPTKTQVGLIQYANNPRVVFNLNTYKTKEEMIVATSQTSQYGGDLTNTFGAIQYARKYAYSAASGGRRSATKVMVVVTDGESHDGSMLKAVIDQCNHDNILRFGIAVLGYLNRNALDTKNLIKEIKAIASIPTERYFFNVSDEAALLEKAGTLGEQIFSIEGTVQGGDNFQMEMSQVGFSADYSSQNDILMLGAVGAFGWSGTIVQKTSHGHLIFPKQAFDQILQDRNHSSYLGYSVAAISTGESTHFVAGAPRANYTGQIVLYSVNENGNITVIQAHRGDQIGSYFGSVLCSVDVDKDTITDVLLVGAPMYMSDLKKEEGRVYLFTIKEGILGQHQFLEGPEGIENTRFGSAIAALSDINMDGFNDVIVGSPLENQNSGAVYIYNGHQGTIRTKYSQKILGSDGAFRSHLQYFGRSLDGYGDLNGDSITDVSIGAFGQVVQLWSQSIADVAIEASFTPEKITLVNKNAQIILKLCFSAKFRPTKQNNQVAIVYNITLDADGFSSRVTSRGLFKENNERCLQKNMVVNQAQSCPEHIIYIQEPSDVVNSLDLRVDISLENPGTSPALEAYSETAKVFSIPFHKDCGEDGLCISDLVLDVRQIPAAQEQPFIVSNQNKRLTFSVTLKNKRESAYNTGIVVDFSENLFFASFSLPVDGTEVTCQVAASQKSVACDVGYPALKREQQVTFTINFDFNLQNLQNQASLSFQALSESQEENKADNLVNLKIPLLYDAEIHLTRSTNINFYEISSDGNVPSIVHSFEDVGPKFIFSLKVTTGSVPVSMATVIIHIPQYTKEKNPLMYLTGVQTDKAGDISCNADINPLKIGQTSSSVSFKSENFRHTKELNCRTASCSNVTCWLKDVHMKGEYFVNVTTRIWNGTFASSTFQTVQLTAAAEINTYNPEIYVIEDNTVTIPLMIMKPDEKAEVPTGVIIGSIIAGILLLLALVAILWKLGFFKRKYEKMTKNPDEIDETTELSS
The experiment in a line: Cell adhesion assay, CHO-α2 cells on collagen type I. Format: cell-based, Chinese Hamster. Conditions: for Emax at 100 µM / inhibition at 50 µM: CHO; for EC50: CHO-α2 cells, collagen type I, read-out: EC50, adhesion. The procedure:
(§1) Chinese Hamster Ovary (CHO) cell clone expressing wild type α2 integrin was used in cell adhesion assay. Cells were suspended in serum free medium containing 0.1 mg/ml cycloheximide (Sigma) and the compounds were preincubated with the cells prior to transfer to the wells. Cells (150000/well) were allowed to attach on collagen type I coated wells (in the presence and absence of inhibitor compounds) for 2 h at +37° C. and after that non-adherent cells were removed. Fresh serum free medium was added and the living cells were detected using a cell viability kit (Roche) according to the manufacturers protocol.
(§2) For this purpose CHO cells were transfected to express α2β1 integrin on their surface as their only collagen receptor.

The target in experiment [2] is T2, α2 I-domain (Homo sapiens, UniProt P17301).
T2 construct: corresponded to amino acids 124-339 of the whole α2 integrin; made in house; host or cells: E. coli BL21 (pGEX-2T)
T2 sequence (P17301 153-368): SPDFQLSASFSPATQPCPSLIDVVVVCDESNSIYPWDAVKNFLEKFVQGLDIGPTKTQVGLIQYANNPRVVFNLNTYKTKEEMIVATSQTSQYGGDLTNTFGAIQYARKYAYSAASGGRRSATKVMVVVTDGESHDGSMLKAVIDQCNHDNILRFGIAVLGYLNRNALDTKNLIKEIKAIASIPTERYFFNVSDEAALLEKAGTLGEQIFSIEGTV
Description: Solid-phase binding assay, α2 I-domain binding to type I collagen. Conditions: for inhibition of α2 I-domain binding to type I collagen (in words): FIG. 6B, 7A, 8A. The procedure:
(§3) Solid-phase binding assay for α1-domains—The coating of a 96-well high binding microtiter plate (Nune) was done by exposure to 0.1 ml of PBS containing 5 μg/cm2 (15 μg/ml) collagens or 20 μg/ml triple-helical peptides overnight at +4° C. Blank wells were coated with 1:1 solution of 0.1 ml Delfia® Diluent II (Wallac) and PBS. Residual protein absorption sites on all wells were blocked with 1:1 solution of 0.1 ml Delfia® Diluent II (Wallac) and PBS. Recombinant proteins (αI-GST) were added to the coated wells at a desired concentration in Delfia® Assay Buffer and incubated for 1 h at room temperature. Europium-labelled anti-GST antibody (Wallac) was then added (typically 1:1000), and the mixture was incubated for 1 h at room temperature. All incubations mentioned above were done in the presence of 2 mM MgCl2. Delfia® enhancement solution (Wallac) was added to each well and the Europium signal was measured by time-resolved fluorometry (Victor2 multilabel counter, Wallac). At least three parallel wells were analyzed. In some cases some what modified solid-phase assay was used and it was performed according Tulla et al, 2001. It uses anti-GST and Europium-labelled protein G instead of Europium-labelled anti-GST antibody.
(§4) The tetracyclic Streptomyces compounds synthesised in Example 1, where screened for inhibition of collagen binding to α1 and α2 I-domains, using the α I-domain assay described in Example 4. […] L3015 could inhibit the binding of both α1I and α2 I-domains to type I and type IV collagen (FIG. 6B).
Based on the utilization of 3D model other compounds from the polyketide family were tested. The compounds were tested in the europium-labelled anti-GST assay described in Example 4. Tetracyclic polyketides L3007, L3008, and L3009 could inhibit α2 I-domain binding to type I collagen (FIG. 8A).

Experiment [3] concerns the target T3, α1 I-domain (Homo sapiens, UniProt P56199).
T3 construct: corresponding to amino acids 123-338 of the whole α1 integrin; made in house; host or cells: E. coli BL21 (pGEX-4T-3)
T3 sequence (P56199 151-366): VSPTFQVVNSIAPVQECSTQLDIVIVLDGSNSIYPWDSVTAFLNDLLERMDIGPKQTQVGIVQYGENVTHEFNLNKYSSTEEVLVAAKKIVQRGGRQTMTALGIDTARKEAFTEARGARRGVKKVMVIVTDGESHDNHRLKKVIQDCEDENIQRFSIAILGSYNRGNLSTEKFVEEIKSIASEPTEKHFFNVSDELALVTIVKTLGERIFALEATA
Description: Solid-phase binding assay, α1 I-domain binding to type I collagen. Conditions: FIG. 6B, 7A. The procedure: as §3, §4
Furthermore α1I and α2 I-domain binding to collagen I in the presence of lovastatin was tested in the europium-labelled anti-GST assay described in Example 4. Lovastatin is an allosteric inhibitor of leukocyte integrin α I-domains (e.g. αL I-domain), and the binding site of lovastatin represents an optional binding site for possible modulators. […] These biological tests gave further evidence that collagen receptor α I-domains are inhibited by direct blocking of the MIDAS surface by tetracyclic polyketide.

Experiment [4] has as its target T2, α2 I-domain. Description: Solid-phase binding assay, α2 I-domain binding to type IV collagen. Conditions: FIG. 6B. The procedure:
as §3, with “antibody. […]” for “antibody.”

In experiment [5] the target is T3, α1 I-domain. The experiment in a line: Solid-phase binding assay, α1 I-domain binding to type IV collagen. Conditions: FIG. 6B. Here is the method:
as §3, with “antibody. […]” for “antibody.”

For experiment [6], the target named is T2, α2 I-domain. Description: α2 I-domain binding to RKK-peptide (europium-labelled protein G assay). Conditions: FIG. 7B. Here is the method:
as §3
RKK-peptides are known to bind to MIDAS of α2 I-domain (Ivaska et al., 1999). […]

Experiment [7] has as its target T4, CHO cells expressing α2β1 integrin (Homo sapiens, UniProt P17301).
T4 sequence (P17301 1-1181): T1 sequence (P17301 1-1181)
The experiment in a line: Cell adhesion assay, CHO-α2 cells on collagen type I. Format: cell-based, Chinese Hamster. Conditions: FIG. 10A, 10B. The procedure: as §1, §2

Experiment [8] deals with CHO expressing mutated α2β1 integrin (tyrosine 285, leucine 286, leucine 296). Description: Cell adhesion assay with CHO cells expressing mutated α2β1 integrin. The class given is cell-based, Chinese Hamster. Conditions: data not shown.
Experiment [9] relates to platelet aggregation in whole blood. The experiment in a line: Platelet function analyzer PFA-100 closure time of whole blood. The class given is cell-based. Conditions: PFA-100, collagen plus epinephrine; FIG. 12. The procedure: Mean and standard deviations were calculated for each treatment.

By Emax is commonly meant the maximal effect, on the per cent scale that the assay sets. One may read the EC50 as the concentration needed to bring the measured effect to its halfway point. Broadly, the inhibition is the relative decrease from the control value, in per cent.

As to `O=C(c1ccccc1)c1cccc(NS(=O)(=O)c2cccc(-c3ccc(F)cc3)c2)c1` [Compound 432], in experiment [1], the Emax at 100 µM is 79% and the EC50 was found to be 15 µM.

Take `CN(C)c1ccc(N(CCO)S(=O)(=O)c2cccc(-c3ccc(F)cc3)c2)cc1` [Compound 359]: in [1], the Emax at 100 µM is 67% and the EC50 was 39 µM.

As to `O=C(c1ccccc1)c1ccc(NS(=O)(=O)c2cccc(-c3ccc(F)cc3)c2)cc1` [Compound 384], in [1], the Emax at 100 µM was found to be 81% and the EC50 was determined as 12 µM.

Turning to `CN(c1ccc(NC(=O)N2CCNC2=O)cc1)S(=O)(=O)c1cccc(-c2ccc(F)cc2)c1` [Compound 430], in experiment [1], the Emax at 100 µM was determined as 59% and the EC50 came out at 14 µM.

Turning to `CCc1cc(O)c2c(O)c3c(cc2c1C(=O)OC)C(=O)c1cccc(O)c1C3=O` [Compound L3015, methyl 2-ethyl-4,5,7-trihydroxy-6,11 dioxonaphthacenecarboxylate], the “inhibition of α2 I-domain binding to type I collagen (in words)” value on α2 I-domain [2] was “could inhibit”. At α2 I-domain [2] (at 0.03 mM concentration, dose dependent, FIG. 6A), this molecule had an inhibition at 30 µM of about 50%. Further, the “inhibition of α1 I-domain binding to type I collagen (in words)” value on α1 I-domain [3] is “could inhibit”. For the same molecule, the “inhibition of α2 I-domain binding to type IV collagen (in words)” value at α2 I-domain [4] is “could inhibit”. Moreover, the “inhibition of α1 I-domain binding to type IV collagen (in words)” value at α1 I-domain [5] is listed as “could inhibit”. The “displacement of RKK peptide at MIDAS” value on α2 I-domain [6] is “can displace”.

Turning to `N#Cc1ccc(NS(=O)(=O)c2cccc(-c3ccc(F)cc3)c2)cc1` [Compound 448], in experiment [1], the Emax at 100 µM stood at 74% and the EC50 was 38 µM.

As for `CC(=O)c1ccc(NS(=O)(=O)c2cccc(-c3ccc(F)cc3)c2)cc1` [Compound 383], the EC50 in experiment [1] is 39 µM.

As for `O=S(=O)(Nc1cccc(-c2ccc(F)cc2)c1)c1ccc(Cl)cc1` [Compound 398], in experiment [1], the inhibition at 50 µM was determined as 83% and the EC50 amounted to 16 µM.

As for `CN(C)CCN(c1ccc(N(C)C)cc1)S(=O)(=O)c1cccc(-c2ccc(F)cc2)c1` [Compound 354], in experiment [1], the Emax at 100 µM came out at 89% and the EC50 was found to be 29 µM.

With `Cn1cccc1C(=O)Nc1ccc(NS(=O)(=O)c2cccc(-c3ccc(F)cc3)c2)cc1` [Compound 442], the Emax at 100 µM in experiment [1] is 22%.

As to `O=S(=O)(Nc1cccc(-c2ccc(F)cc2)c1)c1ccc(Cl)cc1Cl` [Compound 403], in experiment [1], the Emax at 100 µM stood at 86% and the EC50 was 37 µM.

As to `O=C(c1ccccc1)c1ccc([N-]S(=O)(=O)c2cccc(-c3ccc(F)cc3)c2)cc1.[Na+]` [Compound 434], the Emax at 100 µM in [1] (at 100 uM) is 78%. Moreover, the EC50 in [1] stood at 9.1 µM. Besides, the “inhibition of cell adhesion to collagen type I (in words)” value in [7] is on record as “potent inhibitor”. The “effect of mutation of tyrosine 285, leucine 286, leucine 296 on the inhibitory effect in adhesion of CHO cells expressing α2β1 to collagen I” value in experiment [8] is “significantly decreased”. Further, the “closure time of the blood” value in experiment [9] is recorded as “increase the closure time”.

As for `CC[C@H](C)C(=O)O[C@H]1C[C@@H](C)C=C2C=C[C@H](C)[C@H](CC[C@@H]3C[C@@H](O)CC(=O)O3)[C@H]21` [lovastatin, reference compound], the “inhibition of α2 I-domain binding to type I collagen (in words)” value on α2 I-domain [2] was “no effect”. Further, the “inhibition of α1 I-domain binding to type I collagen (in words)” value on α1 I-domain [3] is “no effect”.

`O=C(c1ccccc1)c1ccc(NS(=O)(=O)c2ccc(Cl)cc2Cl)cc1` [Compound 416]: in experiment [1], the Emax at 100 µM is 79%, at 50 µM the inhibition was 44% and the EC50 turned out to be 42 µM.

On to “methyl 2-ethyl-2,5,7,12-tetrahydroxy-4,6,11-trioxo-1,2,3-trihydronaphthacene-carboxylate [Compound L3007]”, for which, on α2 I-domain [2], the “inhibition of α2 I-domain binding to type I collagen (in words)” value is given as “could inhibit”.

For the molecule `CCc1cc(O)c2c(O)c3c(c(O)c2c1C(=O)OC)C(=O)c1cccc(O)c1C3=O` [Compound L3008, methyl 2-ethyl-4,5,7,12-tetrahydroxy-6,11-dioxonaphthacenecarboxylate], the “inhibition of α2 I-domain binding to type I collagen (in words)” value at α2 I-domain [2] is given as “could inhibit”. In [8], the “effect of mutation of tyrosine 285, leucine 286, leucine 296 on the inhibitory effect in adhesion of CHO cells expressing α2β1 to collagen I” value is on record as “significantly decreased”.

Consider `CN(C)c1ccc(N(CCn2ccnc2)S(=O)(=O)c2cccc(-c3ccc(F)cc3)c2)cc1` [Compound 358], for which, in experiment [1], the maximal response (Emax) at 100 µM stood at 74% and the EC50 was 30 µM.

`O=[N+]([O-])c1ccc(NS(=O)(=O)c2cccc(-c3ccc(F)cc3)c2)cc1` [Compound 440]: in experiment [1], the Emax at 100 µM worked out at 78% and the EC50 was determined as 8.7 µM.
